Data: patent US8952024B2, “Herbicidal pyrimidone derivatives” (E I du Pont de Nemours and Company, priority 2009, dated 2015)

Legend:
Type in all cases: in vivo
[1] = test system: Italian ryegrass (Lolium multiflorum); test: Test B pre-/postemergence plant response
Outline: (§1)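 Seeds sown in loam–sand blend were treated preemergence, and plants at 2–18 cm (1- to 4-leaf stage) in peat-based medium were treated postemergence; compounds were formulated in non-phytotoxic solvent with surfactant. After 13–15 days in greenhouse, response was visually rated against controls, 0 (no effect) to 100 (complete control).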

[2] = test system: bermudagrass (Cynodon dactylon); test: Test B pre-/postemergence plant response; settings: for Bermudagrass plant response rating (0 to 100 scale): 62 g ai/ha, 0 is no effect, 13 to 15 days
Outline: as §1

[3] = test system: lambsquarters (Chenopodium album); test: Test B pre-/postemergence plant response
Outline: as §1

[4] = test system: pigweed (Amaranthus retroflexus); test: Test B pre-/postemergence plant response
Outline: as §1

[5] = test system: ragweed (common ragweed, Ambrosia elatior); test: Test B pre-/postemergence plant response
Outline: as §1

[6] = test system: wheat (Triticum aestivum); test: Test B pre-/postemergence plant response
Outline: as §1

[7] = test system: canarygrass (Phalaris minor); test: Test B postemergence plant response
Text: (§2) At the same time, plants selected from these crop and weed species and also winter barley (Hordeum vulgare), canarygrass (Phalaris minor), chickweed (Stellaria media) and windgrass (Apera spica-venti) were planted in pots containing Redi-Earth® planting medium (Scotts Company, 14111 Scottslawn Road, Marysville, Ohio 43041) comprising spaghnum peat moss, vermiculite, wetting agent and starter nutrients and treated with postemergence applications of some of the test chemicals formulated in the same manner. Plants ranged in height from 2 to 18 cm (1- to 4-leaf stage) for postemergence treatments.
(§3) Treated plants and controls were maintained in a greenhouse for 13 to 15 days, after which time all treated plants were visually evaluated and compared to controls. Plant response ratings, summarized in Table B, are based on a scale of 0 to 100 where 0 is no effect and 100 is complete control. A dash (-) response means no test result.

[8] = test system: chickweed (Stellaria media); test: Test B postemergence plant response
Text: as §2, §3

[9] = test system: windgrass (Apera spica-venti); test: Test B postemergence plant response
Text: as §2, §3

[10] = test system: winter barley (Hordeum vulgare); test: Test B postemergence plant response; settings: for Barley plant response rating (0 to 100 scale): 62 g ai/ha, 0 is no effect, 13 to 15 days
Text: as §2, §3

[11] = 16 g ai/ha, Postemergence, 0 to 100 scale
[12] = Postemergence, 31 g ai/ha, 0 to 100 scale (0 no effect, 100 complete control)
[13] = Postemergence, 125 g ai/ha, scale 0 to 100 (0 no effect, 100 complete control)
[14] = postemergence, 100 is complete control
[15] = 31 g ai/ha, postemergence, scale 0 to 100, 0 is no effect, 100 is complete control
[16] = 62 g ai/ha, postemergence, 0 is no effect, 100 is complete control, 13 to 15 days
[17] = Postemergence, 125 g ai/ha, visual rating after 13 to 15 days, scale 0 (no effect) to 100 (complete control)
[18] = Postemergence, 250 g ai/ha, scale 0 to 100 (0 no effect, 100 complete control)

O=C1CCCC(O)=C1C(=O)c1cnc(-c2ccccc2)n(C2CC[S+]([O-])CC2)c1=O (mixture of isomers) [Compound 169, 5-[(2-hydroxy-6-oxo-1-cyclohexen-1-yl)carbonyl]-2-phenyl-3-(trans/cis-tetrahydro-1-oxido-2H-thiopyran-4-yl)-4(3H)-pyrimidinone]
Plant response rating, Ryegrass, Italian [1, 11]: 0
Plant response rating, Ryegrass, Italian [1, 12]: 0
Plant response rating, Ryegrass, Italian [1, 13]: 10
Plant response rating, Bermudagrass [2, 11]: 70
Bermudagrass plant response rating (0 to 100 scale) [2, 14]: 75
Plant response rating, Bermudagrass [2, 12]: 70
Plant response rating, Bermudagrass [2, 13]: 100
Plant response rating, Lambsquarters [3, 11]: 95
Plant response rating, Lambsquarters [3, 12]: 100
Plant response rating, Lambsquarters [3, 13]: 100
Plant response rating, Pigweed [4, 11]: 90
Plant response rating, Pigweed [4, 12]: 100
Plant response rating, Pigweed [4, 13]: 100
Plant response rating, Ragweed [5, 11]: 98
Plant response rating, Ragweed [5, 12]: 100
Plant response rating, Ragweed [5, 13]: 100
Plant response rating, Wheat [6, 11]: 0
Plant response rating, Wheat [6, 12]: 0
Plant response rating, Wheat [6, 13]: 5
Plant response rating, Canarygrass [7, 11]: 5
Plant response rating, Canarygrass [7, 12]: 40
Plant response rating, Canarygrass [7, 13]: 80
Plant response rating, Chickweed [8, 11]: 90
Plant response rating, Chickweed [8, 12]: 100
Plant response rating, Chickweed [8, 13]: 100
Plant response rating, Windgrass [9, 11]: 5
Plant response rating, Windgrass [9, 12]: 15
Plant response rating, Windgrass [9, 13]: 55
Plant response rating, Barley [10, 11]: 0
Barley plant response rating (0 to 100 scale) [10, 14]: 0
Plant response rating, Barley [10, 12]: 0
Plant response rating, Barley [10, 13]: 0

O=C1CCCC(O)=C1C(=O)c1cnc(-c2ccc(Br)cc2)n(-c2ccccc2)c1=O [Compound 70]
Plant response rating, Ryegrass, Italian [1, 15]: 10
Ryegrass, Italian plant response rating (0 to 100 scale) [1, 16]: 10
Plant response rating, Ryegrass, Italian [1, 17]: 50
Plant response rating, Ryegrass, Italian [1, 18]: 70
Plant response rating, Bermudagrass [2, 15]: 75
Bermudagrass plant response rating (0 to 100 scale) [2, 14]: 85
Plant response rating, Bermudagrass [2, 17]: 95
Plant response rating, Bermudagrass [2, 18]: 98
Plant response rating, Lambsquarters [3, 15]: 85
Lambsquarters plant response rating (0 to 100 scale) [3, 16]: 98
Plant response rating, Lambsquarters [3, 17]: 100
Plant response rating, Lambsquarters [3, 18]: 100
Plant response rating, Pigweed [4, 15]: 85
Pigweed plant response rating (0 to 100 scale) [4, 16]: 98
Plant response rating, Pigweed [4, 17]: 98
Plant response rating, Pigweed [4, 18]: 100
Plant response rating, Ragweed [5, 15]: 60
Ragweed plant response rating (0 to 100 scale) [5, 16]: 70
Plant response rating, Ragweed [5, 17]: 75
Plant response rating, Ragweed [5, 18]: 80
Plant response rating, Wheat [6, 15]: 5
Wheat plant response rating (0 to 100 scale) [6, 16]: 20
Plant response rating, Wheat [6, 17]: 35
Plant response rating, Wheat [6, 18]: 35
Plant response rating, Canarygrass [7, 15]: 50
Canarygrass plant response rating (0 to 100 scale) [7, 16]: 80
Plant response rating, Canarygrass [7, 17]: 85
Plant response rating, Canarygrass [7, 18]: 98
Plant response rating, Chickweed [8, 15]: 80
Chickweed plant response rating (0 to 100 scale) [8, 16]: 90
Plant response rating, Chickweed [8, 17]: 98
Plant response rating, Chickweed [8, 18]: 100
Plant response rating, Windgrass [9, 15]: 80
Windgrass plant response rating (0 to 100 scale) [9, 16]: 85
Plant response rating, Windgrass [9, 17]: 90
Plant response rating, Windgrass [9, 18]: 100
Plant response rating, Barley [10, 15]: 10
Barley plant response rating (0 to 100 scale) [10, 14]: 30
Plant response rating, Barley [10, 17]: 90
Plant response rating, Barley [10, 18]: 90
